{"source": "patent US20080033026A1", "about": "“Antimicrobial compositions, methods and systems” (priority 2006, published 2008)", "type_in_all_cases": "cell-based", "key": {"[1]": {"tested_on": "Listeria monocytogenes (ATCC 19111)", "test": "Preservative effectiveness on food pathogens (US Pharmacopoeia 23)", "method": "(§1) The effectiveness of 9-decenoic acid on food pathogens was determined using the protocol on preservative effectiveness found in the US Pharmacopoeia 23, 1995.\n(§2) Stock cultures of the Listeria monocytogenes (ATCC 1911-1), Salmonella enteritidis (ATCC 13076) and Campylobacter jejuni (ATCC 29428) were transferred for at least three consecutives days on Trypticase Soy Agar (TSA) and incubated at 30-35° C. for 18-24 hours. On the day of the test, the cells were washed from the agar surface with sterile saline containing 0.05% w/v Polysorbate 80 (SS+) and the suspension was centrifuged at 2000 rpm for 15 minutes and resuspended in SS+. The suspension was diluted to approximately 10^8 CFU/ml.\n(§3) The 9-decenoic acid was diluted in the same manner as previously described to achieve concentrations of 0.25%, 0.125%, 0.0625%, 0.03%, 0.015%, 0.0078% and 0.0039%. The samples were dispensed in 20 ml aliquots in sterile test tubes. For each concentration tested, a 0.1 ml aliquot of each inoculum was added to a final concentration of 10^5 to 10^6 CFU/ml. The tubes were incubated at room temperature and sampled on days 0, 1, 2, 4, 7, 14, 21 and 28.\n(§4) At each sample point, 1.0 ml aliquots were withdrawn, serially diluted and plated in triplicate on TSA. The plates were incubated at 30-35° C. for 2-4 days. The colonies were counted and the average CFU/ml was calculated. Controls for purity, viability and sterility were performed as described previously.\n(§5) According to the US Pharmacopoeia, a test compound is an effective preservative if the concentrations of viable bacteria remain at or below the initial concentrations during the first fourteen days and after 28 days.\n(§6) Additionally, test organisms in Tables 9-11 were exposed to the 9-decenoic acid for several minutes before analysis at Day 0. As shown in the Tables 9-11, significant biocidal activity was observed even within this short time period for the test organisms, illustrating the effectiveness of 9-decenoic acid as a biocidal agent."}, "[2]": {"tested_on": "Salmonella enteritidis (ATCC 13076)", "test": "Preservative effectiveness on food pathogens (US Pharmacopoeia 23)", "method": "as §1, §2, §3, §4, §5, §6"}, "[3]": {"tested_on": "Aspergillus flavus (ATCC 5917)", "test": "MIC on Potato Dextrose Agar", "details": "PDA agar, 25-30° C.", "method": "(§7) The efficacy of antimicrobial compositions in accordance with aspects of the invention against the following organisms was determined as follows. The following organisms were incubated in the presence of varying concentrations of 9-decenoic acid (9-DA) on an agar surface: Aspergillus parasiticus (ATCC 56857), Trichoderma virens (ATCC 9645), Aspergillus flavus (ATCC 96045), Cladosporium cladosporiodes (ATCC 16022), Aspergillus flavus (ATCC 5917), Aspergillus oryzae (ATCC 10124), Aspergillus parasiticus (ATCC 13539), Ulocladium atrum (ATCC 52426), Candida albicans (ATCC 11651), Aspergillus niger (ATCC 11414).\n(§8) Fungal spores were hydrated in 0.1% Tween 80 and then plated onto Potato Dextrose Agar (PDA) (Difco # 213400; Becton, Dickinson and Company, Sparks, Md.) and incubated at 25-30° C. for six (6) days. The spores were washed from the surface with 5 ml of 0.1% Tween 80 and enumerated.\n(§9) PDA plates were prepared according to the manufacturer's instructions through sterilization. The agar was tempered to approximately 50° C. and filter sterilized. Antimicrobial compositions containing 9-DA were added by percent weight to molten autoclaved PDA media, with consideration of specific gravity (0.915 g/mL for 9-DA) and purity (98% for 9-DA). The agar was thoroughly mixed and poured into sterile petri plates and allowed to solidify.\n(§10) The agar plates were inoculated with the spore solution to achieve 10^2 spores/plate. The plates were incubated at 25-30° C. in Ziploc bags with a wet paper towel to keep the moisture level high. The plates were examined for growth at 1, 2, 3, 4, 8, 11, 15, 17, 23, 29 and 31 days. The percent coverage of growth on the agar surface was recorded at each sample point."}, "[4]": {"tested_on": "Aspergillus flavus (ATCC 96045)", "test": "MIC on Potato Dextrose Agar", "details": "PDA agar, 25-30° C.", "method": "as §7, §8, §9, §10"}, "[5]": {"tested_on": "Aspergillus niger (ATCC 11414)", "test": "MIC on Potato Dextrose Agar", "details": "PDA agar, 25-30° C.", "method": "as §7, §8, §9, §10"}, "[6]": {"tested_on": "Aspergillus parasiticus (ATCC 13539)", "test": "MIC on Potato Dextrose Agar", "details": "PDA agar, 25-30° C.", "method": "as §7, §8, §9, §10"}, "[7]": {"tested_on": "Aspergillus parasiticus (ATCC 56857)", "test": "MIC on Potato Dextrose Agar", "details": "PDA agar, 25-30° C.", "method": "as §7, §8, §9, §10"}, "[8]": {"tested_on": "Candida albicans (ATCC 11651)", "test": "MIC on Potato Dextrose Agar", "details": "PDA agar, 25-30° C.", "method": "as §7, §8, §9, §10"}, "[9]": {"tested_on": "Cladosporium cladosporiodes (ATCC 16022)", "test": "MIC on Potato Dextrose Agar", "details": "PDA agar, 25-30° C.", "method": "as §7, §8, §9, §10"}, "[10]": {"tested_on": "Ulocladium atrum (ATCC 52426)", "test": "MIC on Potato Dextrose Agar", "details": "PDA agar, 25-30° C.", "method": "as §7, §8, §9, §10"}, "[11]": {"details": "0.0078% 9-decenoic acid, exposure day 0"}, "[12]": {"details": "0.0078% 9-decenoic acid, exposure day 1"}, "[13]": {"details": "0.0078% 9-decenoic acid, exposure day 2"}, "[14]": {"details": "0.0078% 9-decenoic acid, exposure day 4"}, "[15]": {"details": "0.0078% 9-decenoic acid, exposure day 7"}, "[16]": {"details": "0.0078% 9-decenoic acid, exposure day 14"}, "[17]": {"details": "0.0078% 9-decenoic acid, exposure day 21"}, "[18]": {"details": "0.0078% 9-decenoic acid, exposure day 28"}, "[19]": {"details": "0.015% 9-decenoic acid, exposure day 0"}, "[20]": {"details": "0.015% 9-decenoic acid, exposure day 1"}, "[21]": {"details": "0.015% 9-decenoic acid, exposure day 2"}, "[22]": {"details": "0.015% 9-decenoic acid, exposure day 4"}, "[23]": {"details": "0.015% 9-decenoic acid, exposure day 7"}, "[24]": {"details": "0.015% 9-decenoic acid, exposure day 14"}, "[25]": {"details": "0.015% 9-decenoic acid, exposure day 21"}, "[26]": {"details": "0.015% 9-decenoic acid, exposure day 28"}, "[27]": {"details": "0.03% 9-decenoic acid, exposure day 0"}, "[28]": {"details": "0.03% 9-decenoic acid, exposure day 1"}, "[29]": {"details": "0.03% 9-decenoic acid, exposure day 2"}, "[30]": {"details": "0.03% 9-decenoic acid, exposure day 4"}, "[31]": {"details": "0.03% 9-decenoic acid, exposure day 7"}, "[32]": {"details": "0.03% 9-decenoic acid, exposure day 14"}, "[33]": {"details": "0.03% 9-decenoic acid, exposure day 21"}, "[34]": {"details": "0.03% 9-decenoic acid, exposure day 28"}, "[35]": {"details": "US Pharmacopoeia definition, 28 days"}}, "data": [{"smiles": "C=CCCCCCCCC(=O)O", "note": "[9-decenoic acid]", "values": [{"measurement": "Log reduction", "setting": "[1]; [11]", "result": 1.0, "unit": "log"}, {"measurement": "Log reduction", "setting": "[1]; [12]", "result": 5.1, "unit": "log"}, {"measurement": "Log reduction", "setting": "[1]; [13]", "result": 5.1, "unit": "log"}, {"measurement": "Log reduction", "setting": "[1]; [14]", "result": 5.1, "unit": "log"}, {"measurement": "Log reduction", "setting": "[1]; [15]", "result": 5.1, "unit": "log"}, {"measurement": "Log reduction", "setting": "[1]; [16]", "result": 5.1, "unit": "log"}, {"measurement": "Log reduction", "setting": "[1]; [17]", "result": 5.1, "unit": "log"}, {"measurement": "Log reduction", "setting": "[1]; [18]", "result": 5.1, "unit": "log"}, {"measurement": "Log reduction", "setting": "[1]; [19]", "result": 5.1, "unit": "log"}, {"measurement": "Log reduction", "setting": "[1]; [20]", "result": 5.1, "unit": "log"}, {"measurement": "Log reduction", "setting": "[1]; [21]", "result": 5.1, "unit": "log"}, {"measurement": "Log reduction", "setting": "[1]; [22]", "result": 5.1, "unit": "log"}, {"measurement": "Log reduction", "setting": "[1]; [23]", "result": 5.1, "unit": "log"}, {"measurement": "Log reduction", "setting": "[1]; [24]", "result": 5.1, "unit": "log"}, {"measurement": "Log reduction", "setting": "[1]; [25]", "result": 5.1, "unit": "log"}, {"measurement": "Log reduction", "setting": "[1]; [26]", "result": 5.1, "unit": "log"}, {"measurement": "Log reduction", "setting": "[1]; [27]", "result": 5.1, "unit": "log"}, {"measurement": "Log reduction", "setting": "[1]; [28]", "result": 5.1, "unit": "log"}, {"measurement": "Log reduction", "setting": "[1]; [29]", "result": 5.1, "unit": "log"}, {"measurement": "Log reduction", "setting": "[1]; [30]", "result": 5.1, "unit": "log"}, {"measurement": "Log reduction", "setting": "[1]; [31]", "result": 5.1, "unit": "log"}, {"measurement": "Log reduction", "setting": "[1]; [32]", "result": 5.1, "unit": "log"}, {"measurement": "Log reduction", "setting": "[1]; [33]", "result": 5.1, "unit": "log"}, {"measurement": "Log reduction", "setting": "[1]; [34]", "result": 5.1, "unit": "log"}, {"measurement": "Concentration at which effective preservative", "setting": "[1]; [35]", "result": "≤ 0.0078", "unit": "%"}, {"measurement": "Exposure time at which bactericidal", "setting": "[1]; at 0.0078%", "result": 1, "unit": "days"}, {"measurement": "Exposure time at which bactericidal", "setting": "[1]; at 150 ppm", "result": 0, "unit": "days"}, {"measurement": "Log reduction", "setting": "[2]; [11]", "result": 0.53, "unit": "log"}, {"measurement": "Log reduction", "setting": "[2]; [12]", "result": 3.2, "unit": "log"}, {"measurement": "Log reduction", "setting": "[2]; [13]", "result": 4.1, "unit": "log"}, {"measurement": "Log reduction", "setting": "[2]; [14]", "result": 4.0, "unit": "log"}, {"measurement": "Log reduction", "setting": "[2]; [15]", "result": 5.1, "unit": "log"}, {"measurement": "Log reduction", "setting": "[2]; [16]", "result": 5.1, "unit": "log"}, {"measurement": "Log reduction", "setting": "[2]; [17]", "result": 5.1, "unit": "log"}, {"measurement": "Log reduction", "setting": "[2]; [18]", "result": 5.1, "unit": "log"}, {"measurement": "Log reduction", "setting": "[2]; [19]", "result": 5.1, "unit": "log"}, {"measurement": "Log reduction", "setting": "[2]; [20]", "result": 5.1, "unit": "log"}, {"measurement": "Log reduction", "setting": "[2]; [21]", "result": 5.1, "unit": "log"}, {"measurement": "Log reduction", "setting": "[2]; [22]", "result": 5.1, "unit": "log"}, {"measurement": "Log reduction", "setting": "[2]; [23]", "result": 5.1, "unit": "log"}, {"measurement": "Log reduction", "setting": "[2]; [24]", "result": 5.1, "unit": "log"}, {"measurement": "Log reduction", "setting": "[2]; [25]", "result": 5.1, "unit": "log"}, {"measurement": "Log reduction", "setting": "[2]; [26]", "result": 5.1, "unit": "log"}, {"measurement": "Log reduction", "setting": "[2]; [27]", "result": 5.1, "unit": "log"}, {"measurement": "Log reduction", "setting": "[2]; [28]", "result": 5.1, "unit": "log"}, {"measurement": "Log reduction", "setting": "[2]; [29]", "result": 5.1, "unit": "log"}, {"measurement": "Log reduction", "setting": "[2]; [30]", "result": 5.1, "unit": "log"}, {"measurement": "Log reduction", "setting": "[2]; [31]", "result": 5.1, "unit": "log"}, {"measurement": "Log reduction", "setting": "[2]; [32]", "result": 5.1, "unit": "log"}, {"measurement": "Log reduction", "setting": "[2]; [33]", "result": 5.1, "unit": "log"}, {"measurement": "Log reduction", "setting": "[2]; [34]", "result": 5.1, "unit": "log"}, {"measurement": "Concentration at which effective preservative", "setting": "[2]; [35]", "result": "≤ 0.0078", "unit": "%"}, {"measurement": "Exposure time at which bactericidal", "setting": "[2]; at 0.0078%", "result": 7, "unit": "days"}, {"measurement": "Exposure time at which bactericidal", "setting": "[2]; at 0.015%", "result": 0, "unit": "days"}, {"measurement": "MIC", "setting": "[3]", "result": 0.05, "unit": "%"}, {"measurement": "MIC", "setting": "[4]", "result": 0.05, "unit": "%"}, {"measurement": "MIC", "setting": "[5]", "result": 0.05, "unit": "%"}, {"measurement": "MIC", "setting": "[6]", "result": 0.05, "unit": "%"}, {"measurement": "MIC", "setting": "[7]", "result": 0.05, "unit": "%"}, {"measurement": "MIC", "setting": "[8]", "result": 0.025, "unit": "%"}, {"measurement": "MIC", "setting": "[9]", "result": 0.025, "unit": "%"}, {"measurement": "MIC", "setting": "[10]", "result": 0.025, "unit": "%"}]}]}
